For three compounds, Activity and EC50 results are on record in ChEMBL document CHEMBL3045830, “Differential effect of triazoles on mycelial growth and disease measurements of Monilinia fructicola isolates with reduced sensitivity to DMI fungicides” (Crop Prot, 2007).

Calls of active or inactive are those of the source. The calls are words filed in the database; no cut-off is given here.

Format in all cases: functional, organism-based
Assay [1] relates to Monilinia fructicola. Briefly: Fungicidal activity against Monilinia fructicola isolate GADL193.04 infected peach fruit assessed as decrease in brown rot disease incidence at 0.112 ml/l applied 24 hr prior to inoculation after 5 days relative to untreated-control.
Assay [2] deals with Monilinia fructicola. Briefly: Fungicidal activity against Monilinia fructicola isolate GADL133.04 assessed as reduction in colony diameter after 5 days.
For assay [3], the system named is Monilinia fructicola. Briefly: Fungicidal activity against Monilinia fructicola isolate GADL193.04 infected peach fruit assessed as decrease in sporulation area at 0.112 ml/l applied 24 hr after inoculation after 5 days relative to untreated-control.
In assay [4] the test system is Monilinia fructicola. Put plainly: Fungicidal activity against Monilinia fructicola isolate SCDL71.01 infected peach fruit assessed as decrease in brown rot disease incidence at 0.112 ml/l applied 24 hr prior to inoculation after 5 days relative to untreated-control.
Assay [5] relates to Monilinia fructicola. Briefly: Fungicidal activity against Monilinia fructicola isolate SCDL71.01 infected peach fruit assessed as decrease in brown rot disease incidence at 0.112 ml/l applied 24 hr after inoculation after 5 days relative to untreated-control.
The test system of assay [6] is Monilinia fructicola. Put plainly: Fungicidal activity against Monilinia fructicola isolate GADL133.04 infected peach fruit assessed as decrease in brown rot disease incidence at 0.112 ml/l applied 24 hr after inoculation after 5 days relative to untreated-control.
The test system of assay [7] is Monilinia fructicola. Briefly: Fungicidal activity against Monilinia fructicola isolate GADL193.04 infected peach fruit assessed as decrease in sporulation area at 0.112 ml/l applied 24 hr prior to inoculation after 5 days relative to untreated-control.
Assay [8] concerns Monilinia fructicola. Put plainly: Fungicidal activity against Monilinia fructicola isolate GADL193.04 assessed as reduction in colony diameter after 5 days.
The test system of assay [9] is Monilinia fructicola. Put plainly: Fungicidal activity against Monilinia fructicola isolate SCDL71.01 infected peach fruit assessed as decrease in sporulation area at 0.112 ml/l applied 24 hr prior to inoculation after 5 days relative to untreated-control.
For assay [10], the system named is Monilinia fructicola. Put plainly: Fungicidal activity against Monilinia fructicola isolate SCDL71.01 infected peach fruit assessed as decrease in sporulation area at 0.112 ml/l applied 24 hr after inoculation after 5 days relative to untreated-control.
For assay [11], the system named is Monilinia fructicola. Briefly: Fungicidal activity against Monilinia fructicola isolate GADL133.04 infected peach fruit assessed as decrease in brown rot disease incidence at 0.112 ml/l applied 24 hr prior to inoculation after 5 days relative to untreated-control.
In assay [12] the test system is Monilinia fructicola. Briefly: Fungicidal activity against Monilinia fructicola isolate GADL193.04 infected peach fruit assessed as decrease in brown rot disease incidence at 0.112 ml/l applied 24 hr after inoculation after 5 days relative to untreated-control.
For assay [13], the system named is Monilinia fructicola. Put plainly: Fungicidal activity against Monilinia fructicola isolate GADL133.04 infected peach fruit assessed as decrease in sporulation area at 0.112 ml/l applied 24 hr after inoculation after 5 days relative to untreated-control.
The subject of assay [14] is Monilinia fructicola. Briefly: Fungicidal activity against Monilinia fructicola isolate SCDL71.01 assessed as reduction in colony diameter after 5 days.
Assay [15] relates to Monilinia fructicola. Briefly: Fungicidal activity against Monilinia fructicola isolate GADL133.04 infected peach fruit assessed as decrease in sporulation area at 0.112 ml/l applied 24 hr prior to inoculation after 5 days relative to untreated-control.
Assay [16] concerns Monilinia fructicola. Briefly: Fungicidal activity against Monilinia fructicola isolate GADL193.04 infected peach fruit assessed as decrease in brown rot disease incidence at 0.131 ml/l applied 24 hr after inoculation after 5 days relative to untreated-control.
Assay [17] relates to Monilinia fructicola. Put plainly: Fungicidal activity against Monilinia fructicola isolate SCDL71.01 infected peach fruit assessed as decrease in brown rot disease incidence at 0.131 ml/l applied 24 hr prior to inoculation after 5 days relative to untreated-control.
The test system of assay [18] is Monilinia fructicola. Briefly: Fungicidal activity against Monilinia fructicola isolate GADL133.04 infected peach fruit assessed as decrease in brown rot disease incidence at 0.131 ml/l applied 24 hr prior to inoculation after 5 days relative to untreated-control.
Assay [19] deals with Monilinia fructicola. Put plainly: Fungicidal activity against Monilinia fructicola isolate SCDL71.01 infected peach fruit assessed as decrease in sporulation area at 0.131 ml/l applied 24 hr after inoculation after 5 days relative to untreated-control.
The test system of assay [20] is Monilinia fructicola. Briefly: Fungicidal activity against Monilinia fructicola isolate GADL133.04 infected peach fruit assessed as decrease in sporulation area at 0.131 ml/l applied 24 hr after inoculation after 5 days relative to untreated-control.
Assay [21] has as its system Monilinia fructicola. Put plainly: Fungicidal activity against Monilinia fructicola isolate SCDL71.01 infected peach fruit assessed as decrease in brown rot disease incidence at 0.131 ml/l applied 24 hr after inoculation after 5 days relative to untreated-control.
For assay [22], the system named is Monilinia fructicola. Briefly: Fungicidal activity against Monilinia fructicola isolate GADL193.04 infected peach fruit assessed as decrease in brown rot disease incidence at 0.131 ml/l applied 24 hr prior to inoculation after 5 days relative to untreated-control.
Assay [23] concerns Monilinia fructicola. Briefly: Fungicidal activity against Monilinia fructicola isolate GADL193.04 infected peach fruit assessed as decrease in sporulation area at 0.131 ml/l applied 24 hr after inoculation after 5 days relative to untreated-control.
Assay [24] concerns Monilinia fructicola. Put plainly: Fungicidal activity against Monilinia fructicola isolate GADL193.04 infected peach fruit assessed as decrease in sporulation area at 0.131 ml/l applied 24 hr prior to inoculation after 5 days relative to untreated-control.
Assay [25] has as its system Monilinia fructicola. Put plainly: Fungicidal activity against Monilinia fructicola isolate GADL133.04 infected peach fruit assessed as decrease in brown rot disease incidence at 0.131 ml/l applied 24 hr after inoculation after 5 days relative to untreated-control.
For assay [26], the system named is Monilinia fructicola. Briefly: Fungicidal activity against Monilinia fructicola isolate SCDL71.01 infected peach fruit assessed as decrease in sporulation area at 0.131 ml/l applied 24 hr prior to inoculation after 5 days relative to untreated-control.
The test system of assay [27] is Monilinia fructicola. Put plainly: Fungicidal activity against Monilinia fructicola isolate GADL133.04 infected peach fruit assessed as decrease in sporulation area at 0.131 ml/l applied 24 hr prior to inoculation after 5 days relative to untreated-control.
The test system of assay [28] is Monilinia fructicola. Briefly: Fungicidal activity against Monilinia fructicola isolate SCDL71.01 infected peach fruit assessed as decrease in brown rot disease incidence at 0.135 ml/l applied 24 hr after inoculation after 5 days relative to untreated-control.
For assay [29], the system named is Monilinia fructicola. Put plainly: Fungicidal activity against Monilinia fructicola isolate SCDL71.01 infected peach fruit assessed as decrease in sporulation area at 0.135 ml/l applied 24 hr after inoculation after 5 days relative to untreated-control.
Assay [30] deals with Monilinia fructicola. Put plainly: Fungicidal activity against Monilinia fructicola isolate GADL193.04 infected peach fruit assessed as decrease in sporulation area at 0.135 ml/l applied 24 hr prior to inoculation after 5 days relative to untreated-control.
Assay [31] relates to Monilinia fructicola. Briefly: Fungicidal activity against Monilinia fructicola isolate GADL133.04 infected peach fruit assessed as decrease in brown rot disease incidence at 0.135 ml/l applied 24 hr after inoculation after 5 days relative to untreated-control.
Assay [32] relates to Monilinia fructicola. Put plainly: Fungicidal activity against Monilinia fructicola isolate SCDL71.01 infected peach fruit assessed as decrease in sporulation area at 0.135 ml/l applied 24 hr prior to inoculation after 5 days relative to untreated-control.
Assay [33] relates to Monilinia fructicola. Briefly: Fungicidal activity against Monilinia fructicola isolate GADL193.04 infected peach fruit assessed as decrease in brown rot disease incidence at 0.135 ml/l applied 24 hr after inoculation after 5 days relative to untreated-control.
Assay [34] deals with Monilinia fructicola. Put plainly: Fungicidal activity against Monilinia fructicola isolate GADL133.04 infected peach fruit assessed as decrease in brown rot disease incidence at 0.135 ml/l applied 24 hr prior to inoculation after 5 days relative to untreated-control.
In assay [35] the test system is Monilinia fructicola. Put plainly: Fungicidal activity against Monilinia fructicola isolate GADL133.04 infected peach fruit assessed as decrease in sporulation area at 0.135 ml/l applied 24 hr after inoculation after 5 days relative to untreated-control.
Assay [36] deals with Monilinia fructicola. Put plainly: Fungicidal activity against Monilinia fructicola isolate GADL193.04 infected peach fruit assessed as decrease in sporulation area at 0.135 ml/l applied 24 hr after inoculation after 5 days relative to untreated-control.
In assay [37] the test system is Monilinia fructicola. Briefly: Fungicidal activity against Monilinia fructicola isolate GADL193.04 infected peach fruit assessed as decrease in brown rot disease incidence at 0.135 ml/l applied 24 hr prior to inoculation after 5 days relative to untreated-control.
Assay [38] deals with Monilinia fructicola. Put plainly: Fungicidal activity against Monilinia fructicola isolate SCDL71.01 infected peach fruit assessed as decrease in brown rot disease incidence at 0.135 ml/l applied 24 hr prior to inoculation after 5 days relative to untreated-control.
Assay [39] has as its system Monilinia fructicola. Briefly: Fungicidal activity against Monilinia fructicola isolate GADL133.04 infected peach fruit assessed as decrease in sporulation area at 0.135 ml/l applied 24 hr prior to inoculation after 5 days relative to untreated-control.

For the compound `N#CC(CCc1ccc(Cl)cc1)(Cn1cncn1)c1ccccc1` (stereo not given) [FENBUCONAZOLE], the result in the assay on Monilinia fructicola [1], in the assay on Monilinia fructicola [2], with Monilinia fructicola [3], with Monilinia fructicola [4], in the assay on Monilinia fructicola [5] and in the assay on Monilinia fructicola [6] was Active. In addition, the outcome with Monilinia fructicola [7], with Monilinia fructicola [8], with Monilinia fructicola [9], in the assay on Monilinia fructicola [10], with Monilinia fructicola [11] and with Monilinia fructicola [12] was Active. Also, the outcome in the assay on Monilinia fructicola [13] and with Monilinia fructicola [15] was Active. The EC50 in the assay on Monilinia fructicola [14] came to 0.019 uL/ml.

Turning to `CCCC1COC(Cn2cncn2)(c2ccc(Cl)cc2Cl)O1` (stereo not given) [PROPICONAZOLE], the outcome in the assay with Monilinia fructicola [16], in the assay with Monilinia fructicola [2], in the assay on Monilinia fructicola [17], with Monilinia fructicola [18], in the assay on Monilinia fructicola [19] and in the assay with Monilinia fructicola [8] was Active. In addition, the result with Monilinia fructicola [20], in the assay with Monilinia fructicola [21], with Monilinia fructicola [22], in the assay with Monilinia fructicola [23], with Monilinia fructicola [24] and with Monilinia fructicola [25] was Active. Further, the result with Monilinia fructicola [26] and in the assay on Monilinia fructicola [27] was Active. In addition, the EC50 in the assay with Monilinia fructicola [14] stood at 0.023 uL/ml.

Take `CC(C)(C)C(O)(CCc1ccc(Cl)cc1)Cn1cncn1` (stereo not given) [TEBUCONAZOLE]: the result with Monilinia fructicola [28], with Monilinia fructicola [2], in the assay on Monilinia fructicola [29], in the assay with Monilinia fructicola [30], in the assay on Monilinia fructicola [31] and with Monilinia fructicola [32] was Active. Moreover, the result in the assay on Monilinia fructicola [33], with Monilinia fructicola [34], in the assay on Monilinia fructicola [35], in the assay with Monilinia fructicola [8], in the assay on Monilinia fructicola [36] and in the assay on Monilinia fructicola [37] was Active. The result in the assay on Monilinia fructicola [38] and with Monilinia fructicola [39] was Active. Also, the EC50 in the assay on Monilinia fructicola [14] stood at 0.018 uL/ml.
